Assays:
[1] = tested on: normal primary NK cells, pool 3 (3 donors) (IL-2 2.5 ng/mL); assay: percent inhibition of viability; higher = more inhibition; details: 72 h
YT (IL-2 2.5 ng/mL) [2] = assay: as above; details: 72 h
NK-YS (IL-2 2.5 ng/mL) [3] = assay: as above; details: 72 h
KHYG-1 (IL-2 2.5 ng/mL) [4] = assay: as above; details: 72 h
[5] = tested on: normal primary NK cells, pool 1 (3 donors), resting (IL-2 0 ng/mL); assay: as above; details: 72 h
KAI3 (IL-2 2.5 ng/mL) [6] = assay: as above; details: 72 h
NK-92 (IL-2 2.5 ng/mL) [7] = assay: as above; details: 72 h
NKL (IL-2 2.5 ng/mL) [8] = assay: as above; details: 72 h
[9] = tested on: normal primary NK cells, pool 2 (3 donors) (IL-2 2.5 ng/mL); assay: as above; details: 72 h
DERL-7 (IL-2 2.5 ng/mL) [10] = assay: as above; details: 72 h
SNK-6 (IL-2 2.5 ng/mL) [11] = assay: as above; details: 72 h
[12] = tested on: normal primary NK cells, pool 1 (3 donors) (IL-2 2.5 ng/mL); assay: as above; details: 72 h
IMC-1 (IL-2 20 ng/mL) [13] = assay: as above; details: 72 h
[14] = tested on: normal NK cells expanded with K562-aAPC; assay: drug sensitivity score (DSS) (DSS units); higher = more sensitive; extreme values may be limits of the assay; details: 72 h; IL-2 2.5 ng/mL
Description: (§1)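 Drug sensitivity and resistance testing on K562-aAPC-expanded normal NK cells: 5 concentrations (10-fold steps over a 10,000-fold range), 72 h at 37 °C, viability by CellTiter-Glo normalised to DMSO and benzethonium chloride controls; DSS from the fitted curve.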

[15] = tested on: normal primary NK cells, pool 3 (3 donors) (IL-2 2.5 ng/mL); assay: as above; details: 72 h
YT (IL-2 2.5 ng/mL) [16] = assay: as above; details: 72 h
NK-YS (IL-2 2.5 ng/mL) [17] = assay: as above; details: 72 h
KHYG-1 (IL-2 2.5 ng/mL) [18] = assay: as above; details: 72 h
[19] = tested on: normal primary NK cells, pool 1 (3 donors), resting (IL-2 0 ng/mL); assay: as above; details: 72 h
KAI3 (IL-2 2.5 ng/mL) [20] = assay: as above; details: 72 h
NK-92 (IL-2 2.5 ng/mL) [21] = assay: as above; details: 72 h
NKL (IL-2 2.5 ng/mL) [22] = assay: as above; details: 72 h
[23] = tested on: normal primary NK cells, pool 2 (3 donors) (IL-2 2.5 ng/mL); assay: as above; details: 72 h
DERL-7 (IL-2 2.5 ng/mL) [24] = assay: as above; details: 72 h
SNK-6 (IL-2 2.5 ng/mL) [25] = assay: as above; details: 72 h
[26] = tested on: normal primary NK cells, pool 1 (3 donors) (IL-2 2.5 ng/mL); assay: as above; details: 72 h
IMC-1 (IL-2 20 ng/mL) [27] = assay: as above; details: 72 h
[28] = tested on: normal NK cells expanded with K562-aAPC; assay: percent inhibition of viability; higher = more inhibition; details: 72 h, IL-2 2.5 ng/mL
Description: as §1

CN1CCN(c2cc(C(=O)Nc3ccc4c(c3)-c3c(c(C(N)=O)nn3-c3ccc(F)cc3)CC4)c(Cl)cn2)CC1 [PHA 408] (max concentration tested 10000 nM)
percent inhibition of viability [%]
Details | 1 nM | 10 nM | 100 nM | 1000 nM | 10000 nM
DERL-7 (IL-2 2.5 ng/mL) [10] | -1.3 | 0.79 | 2.16 | 31.9 | 101
IMC-1 (IL-2 20 ng/mL) [13] | -8.52 | -6.11 | -8.53 | 2.74 | 99.6
KAI3 (IL-2 2.5 ng/mL) [6] | -0.05 | 1.36 | 9.21 | 50.4 | 101
KHYG-1 (IL-2 2.5 ng/mL) [4] | -10.4 | -8.63 | -10.2 | -0.31 | 104
NK-92 (IL-2 2.5 ng/mL) [7] | -21 | -16.1 | -4.02 | 12.9 | 102
NK-YS (IL-2 2.5 ng/mL) [3] | -12.4 | -7.83 | -4.48 | 7.91 | 103
NKL (IL-2 2.5 ng/mL) [8] | -18.1 | -8.26 | -5.06 | 22.7 | 103
SNK-6 (IL-2 2.5 ng/mL) [11] | -17.6 | -11.2 | 0.21 | 22.9 | 100
YT (IL-2 2.5 ng/mL) [2] | -7.69 | -3.99 | -2.06 | 15.8 | 104
[1] | 1.98 | 1.33 | 13.2 | 4.36 | 101
[5] | 18.8 | 21.2 | 14.8 | 12.5 | 100
[9] | 1.04 | -1.49 | 11.9 | 13 | 101
[12] | -10.8 | -7.07 | 1.01 | 6.7 | 101
[28] | -8.15 | -10.8 | -1.64 | 16.7 | 101

Details | drug sensitivity score
DERL-7 (IL-2 2.5 ng/mL) [24] | 10.1
IMC-1 (IL-2 20 ng/mL) [27] | 5.9
KAI3 (IL-2 2.5 ng/mL) [20] | 11.6
KHYG-1 (IL-2 2.5 ng/mL) [18] | 5.88
NK-92 (IL-2 2.5 ng/mL) [21] | 7.75
NK-YS (IL-2 2.5 ng/mL) [17] | 6.95
NKL (IL-2 2.5 ng/mL) [22] | 9.11
SNK-6 (IL-2 2.5 ng/mL) [25] | 9.12
YT (IL-2 2.5 ng/mL) [16] | 8.22
[14] | 8.3
[15] | 6.27
[19] | 7.64
[23] | 7.73
[26] | 6.64

CC(=O)c1c(C)c2cnc(Nc3ccc(N4CCNCC4)cn3)nc2n(C2CCCC2)c1=O [Palbociclib] (max concentration tested 10000 nM)
percent inhibition of viability [%]
Details | 1 nM | 10 nM | 100 nM | 1000 nM | 10000 nM
DERL-7 (IL-2 2.5 ng/mL) [10] | -8.16 | 4.2 | 8.47 | 32.2 | 90.9
IMC-1 (IL-2 20 ng/mL) [13] | -2.52 | -7.06 | -2.86 | 6.43 | 101
KAI3 (IL-2 2.5 ng/mL) [6] | -3.55 | -10.6 | -0.36 | 0.62 | 57.6
KHYG-1 (IL-2 2.5 ng/mL) [4] | -0.2 | 2.78 | 14.7 | 81.5 | 91.9
NK-92 (IL-2 2.5 ng/mL) [7] | 6.01 | -5.34 | 15.5 | 12.9 | 65.7
NK-YS (IL-2 2.5 ng/mL) [3] | 2.65 | 4.48 | 17.3 | 37.1 | 61.5
NKL (IL-2 2.5 ng/mL) [8] | -10.3 | -8.16 | -14.5 | 25 | 104
SNK-6 (IL-2 2.5 ng/mL) [11] | 27.7 | 15.6 | 28.3 | 9.56 | 32.5
YT (IL-2 2.5 ng/mL) [2] | 2.18 | 0.66 | 6.83 | 31.3 | 37
[1] | -13.2 | -11.6 | 6.3 | -3.24 | 67
[5] | 6.42 | -17.5 | -3.52 | -17 | 68.2
[9] | -10.6 | -5.61 | 1.26 | 2.75 | 66.1
[12] | -11.6 | -7.3 | -7.79 | -6.34 | 74.7
[28] | 1.29 | 2.27 | 11 | 16.3 | 94.1

Details | drug sensitivity score
DERL-7 (IL-2 2.5 ng/mL) [24] | 8.89
IMC-1 (IL-2 20 ng/mL) [27] | 6.58
KAI3 (IL-2 2.5 ng/mL) [20] | 3.18
KHYG-1 (IL-2 2.5 ng/mL) [18] | 16.8
NK-92 (IL-2 2.5 ng/mL) [21] | 5.65
NK-YS (IL-2 2.5 ng/mL) [17] | 9.09
NKL (IL-2 2.5 ng/mL) [22] | 9.37
SNK-6 (IL-2 2.5 ng/mL) [25] | 0
YT (IL-2 2.5 ng/mL) [16] | 6.16
[14] | 7.9
[15] | 3.41
[19] | 2.9
[23] | 4
[26] | 3.66

— the supplement of paper PMC5908809
